Source: patent publication US20240210412A1, “SULFONYL-TRIAZOLE COMPOUNDS USEFUL AS LIGANDS AND INHIBITORS OF PROSTAGLANDIN REDUCTASE 2” (University of Virginia Patent Foundation, priority 2021, published 2024)
Entries after “also recorded” stand apart in the source; their conditions may differ.

Legend:
[1] = test system: Q6IS14; assay: SILAC LC-MS ABPP; format: cell-based, human; conditions: 25 μM 2 h, live DM93 cells
Experimental: (§1) Cells were grown to 90-95% confluence before being washed once with warm, sterile DPBS (1×, 5 mL), followed by addition of 10 mL of serum-free media (supplemented with 1% L-glutamine) containing either DMSO or SuTEx fragment (in DMSO) was added. Light cells were treated with DMSO vehicle while the heavy cells were treated with DMSO or SuTEx fragment (in DMSO) and incubated for 2 hrs. After 2 hrs, the cells were treated with SuTEx alkyne probe (HHS475, 10 μL of 1000× DMSO stock) and incubated for an additional 2 hrs. The media was aspirated and cells washed with cold PBS (5 mL) and harvested. Cells were spun at 500×g for 5 min at 4° C. followed by removal of supernatant. Pellets were resuspended in 1 mL of cold DPBS and spun at 1,400×g for 3 min at 4° C. followed by removal of supernatant. The cells were lysed in PBS by sonication and fractionated (100,000×g, 45 min, 4° C.).The light and heavy soluble fractions were diluted to 2.3 mg/mL in PBS and 432 μL were used for analysis (1 mg total protein). The probe-modified proteomes were conjugated to desthiobiotin-PEG3-azide (10 μl of 10 mM stock in DMSO; 200 μM final concentration) using TCEP (10 μl of fresh 50 mM stock in water, 1 mM final concentration), TBTA ligand (33 μl of a 1.7 mM 4:1 t-butanol/DMSO stock, 100 μM final concentration) and CuSO4 (10 μl of 50 mM stock, 1 mM final concentration). Samples were vortexed to mix and incubated for 1 hr at room temperature. The heavy and light proteomes were mixed 1:1 and the subsequent steps, including LC-MS/MS data analysis, were performed as previously described^[8a].
(§2) Coupling cell-based screens with chemical proteomics can facilitate the identification of target protein and binding sites that engage and are irreversibly modified by covalent ligands^[12]. In these assays, covalent ligands block SuTEx activity-based probe (ABP) labeling at protein sites, and the competition of probe labeling can be used to quantify potency and selectivity across the proteome^[10a]. To facilitate quantitative chemical proteomics, DM93 melanoma cells were cultured using stable isotopic labeling by amino acids in cell culture (SILAC)^[13]. Cells cultured in “light” media were treated with dimethyl sulfoxide (DMSO) vehicle while cells cultured in “heavy” media were treated with SuTEx ligand (25 μM, 2 hours, 37° C.). Next, cells were treated with HHS-475 probe (100 μM, 2 hours, 37° C.) followed by lysis and processing of proteomes for analysis. Probe-modified proteins from the soluble fraction were conjugated to a desthiobiotin-azide tag by copper-catalyzed azide-alkyne cycloaddition (CuAAC)^[14] followed by mixing of the light and heavy proteomes. The combined proteomes were digested with trypsin protease to produce probe-modified peptides, followed by enrichment and purification by avidin affinity chromatography. Probe-modified peptides were resolved, identified, and quantified by high-resolution liquid chromatography-tandem mass spectrometry (LC-MS/MS). Resultant data were analyzed as previously described^[8a, 10a]. Table 2, below, lists sites of modification targeted by sulfonyl-triazole compounds HHS-0101, HHS-0201, HHS-0301, HHS-0401, and HHS-0701. The format of the table is as follows: protein Uniprot accession number (see uniprot.org); tyrosine site (amino acid position) modified; treatment (sulfonyl-triazole compound identification number, followed by Y (where if multiple compounds modify the same site, the compounds are separated by vertical lines).

[2] = test system: A6NKT7; assay: SILAC LC-MS ABPP; format: cell-based, human; conditions: 25 μM 2 h, live DM93 cells
Experimental: as §1, §2

[3] = test system: Q5VTE0; assay: SILAC LC-MS ABPP; format: cell-based, human; conditions: 25 μM 2 h, live DM93 cells
Experimental: as §1, §2

[4] = test system: Q8NFI4; assay: SILAC LC-MS ABPP; format: cell-based, human; conditions: 25 μM 2 h, live DM93 cells
Experimental: as §1, §2

[5] = test system: Q9Y5K3; assay: SILAC LC-MS ABPP; format: cell-based, human; conditions: 25 μM 2 h, live DM93 cells
Experimental: as §1, §2

[6] = target: T1, Fumarylacetoacetase (FAH) (Homo sapiens, UniProt P16930); assay: gel-based ABPP, HHS-475 probe, HEK293T cells expressing recombinant FAH; format: cell-based; conditions: live HEK293T cells, ligand 25 μM or varying, 2 h; HHS-475 100 μM
T1 construct: FLAG; host or cells: HEK293T
T1 sequence (P16930 whole entry): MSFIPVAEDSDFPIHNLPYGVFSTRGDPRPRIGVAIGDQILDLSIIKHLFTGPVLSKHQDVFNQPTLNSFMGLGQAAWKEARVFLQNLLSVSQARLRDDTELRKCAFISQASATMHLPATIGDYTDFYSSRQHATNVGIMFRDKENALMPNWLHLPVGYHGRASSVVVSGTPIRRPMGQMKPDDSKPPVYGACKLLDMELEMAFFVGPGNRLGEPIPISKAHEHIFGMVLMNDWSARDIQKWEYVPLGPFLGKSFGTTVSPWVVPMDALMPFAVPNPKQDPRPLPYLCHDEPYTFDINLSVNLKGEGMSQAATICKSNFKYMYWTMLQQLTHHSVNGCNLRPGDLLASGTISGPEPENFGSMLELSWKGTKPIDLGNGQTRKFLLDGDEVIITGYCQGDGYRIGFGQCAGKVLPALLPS
Experimental: HEK293T cells at 30-50% confluency were transfected with 2.6 μg of FAH or PTGR2 plasmid DNA in a serum-free media/polyethyleneimine solution for 48 hrs. The cells were washed once with warm, sterile DPBS (1×, 5 mL), and then 10 mL of serum-free media (supplemented with 1% L-glutamine) containing either DMSO or SuTEx fragment (in DMSO) was added. After 2 hrs, the cells were treated with 100 μM of SuTEx alkyne probe (HHS-475, 10 μL of 1000× DMSO stock) and incubated for an additional 2 hrs. The media was aspirated and cells washed with cold PBS (5 mL) and harvested. Cells were spun at 500×g for 5 min at 4° C. and supernatant was removed. Pellets were resuspended in 1 mL of cold DPB S and spun at 1,400×g for 3 min at 4° C. and supernatant was removed. […] The samples were analyzed by SDS-PAGE (30 μL) and imaged by in-gel fluorescence scanning.
Competitive gel-based chemoproteomic assays were performed using recombinant proteins from select targets to verify our LC-MS findings. […] Quantitative chemical proteomic studies identified HHS-0401 as a ligand for the Y244 site of FAH. These findings were confirmed by treating HEK293T cells expressing recombinant FAH with SuTEx ligands (25 μM, 2 hours, 37° C.) followed by labeling with HHS-475 probe (100 μM, 2 hours, 37° C.), cell lysis, and conjugation with rhodamine azide by CuAAC to visualize probe-modified proteins using in-gel fluorescence scanning.

[7] = test system: Q8N0Y7; assay: SILAC LC-MS ABPP; format: cell-based, human; conditions: 25 μM 2 h, live DM93 cells
Experimental: as §1, §2

[8] = test system: O15523; assay: SILAC LC-MS ABPP; format: cell-based, human; conditions: 25 μM 2 h, live DM93 cells
Experimental: as §1, §2

SMILES: O=C(NC1CC1)c1ccc(S(=O)(=O)n2cncn2)cc1 [HHS-0101, 4-((1H-1,2,4-triazol-1-yl)sulfonyl)-N-cyclopropylbenzamide]
- liganded tyrosine site 127 [1]: HHS0101.Y|HHS0201.Y|HHS0701.Y (tyrosine sites that showed >80% reductions (SR >5) in probe labeling in cells treated with compounds (liganded sites))
- liganded tyrosine site 1008 [2]: HHS0101.Y (tyrosine sites that showed >80% reductions (SR >5) in probe labeling in cells treated with compounds (liganded sites))
- liganded tyrosine site 183 [3]: HHS0101.Y (tyrosine sites that showed >80% reductions (SR >5) in probe labeling in cells treated with compounds (liganded sites))

SMILES: O=C(NCC1CC1)c1ccc(S(=O)(=O)n2cncn2)cc1 [HHS-0201, 4-((1H-1,2,4-triazol-1-yl)sulfonyl)-N-(cyclopropylmethyl)benzamide]
- liganded tyrosine site 213 [4]: HHS0201.Y (tyrosine sites that showed >80% reductions (SR >5) in probe labeling in cells treated with compounds (liganded sites))

SMILES: O=C(NC1CCCCC1)c1ccc(S(=O)(=O)n2cncn2)cc1 [HHS-0301, 4-((1H-1,2,4-triazol-1-yl)sulfonyl)-N-cyclohexylbenzamide]
- liganded tyrosine site 173 [5]: HHS0301.Y (tyrosine sites that showed >80% reductions (SR >5) in probe labeling in cells treated with compounds (liganded sites))

SMILES: O=C(NCc1ccccc1)c1ccc(S(=O)(=O)n2cncn2)cc1 [HHS-0401, 4-((1H-1,2,4-triazol-1-yl)sulfonyl)-N-benzylbenzamide]
- blockade of HHS-475 labeling of FAH [6]: blocked HHS-475 labeling of FAH; also recorded: competing probe labeling of recombinant FAH in a concentration-dependent manner
- liganded tyrosine site 119 [7]: HHS0401.Y (tyrosine sites that showed >80% reductions (SR >5) in probe labeling in cells treated with compounds (liganded sites))
- liganded tyrosine site 264 [8]: HHS0401.Y (tyrosine sites that showed >80% reductions (SR >5) in probe labeling in cells treated with compounds (liganded sites))
